Measurements from US20250122191A1, “COMPOUNDS AS BCL-2 INHIBITORS” (Fochon Biosciences, Ltd, priority 2021, published 2025).

Test system: Toledo cells
Experiment: Cell proliferation assay (MTS), Toledo cells
Assay type: cell-based
Details: Homo sapiens, 72 h
Method: MTS testing kit was purchased from Promega (Madison, WI, USA). The RPMI-1640, Fetal bovine serum and Penicillin-Streptomycin were purchased from BI (Biological Industries, Beit Haemek, Israel). Dimethyl sulfoxide (DMSO) was purchased from Sigma (St. Louis., MO, USA). Toledo (ATCC catalog #: CRL-2631) cells were cultured in RPMI-1640 supplemented with Penicillin-Streptomycin and 10% FBS.
To investigate whether a compound is able to inhibit the activity of BCL-2 in cells, a mechanism-based assay using Toledo lines was developed. In this assay, the inhibition of BCL-2 was reflected by the inhibition of cell proliferation of Toledo cells. Cells were plated into 96-well plates at the optimized cell density of 30000 cells/well. Plates were incubated at 37° C., with 5% CO2 for 4 h. Compounds were serially diluted and added to the plates with the final concentrations of 10000, 3333.3, 1111.1, 370.4, 123.5, 41.2, 13.7, 4.6 and 1.5 nM. Plates were incubated at 37° C., with 5% CO2 for 72 h. 20 μl MTS was added into each well and the plates were incubated at 37° C., with 5% CO2 for exactly 2 h. The absorbance was measured by a microplate reader at 490 nm. IC50 was calculated using GraphPad Prism 5.0 software.

| Compound | IC50 [nM] |
| --- | --- |
| CCOc1nc2[nH]cc(F)c2cc1Oc1cc(N2CCC3(CC2)CC(N2CCN(Cc4ccc(OC)c(F)c4)C[C@H]2c2ccccc2C(C)C)C3)ccc1C(=O)NS(=O)(=O)c1cnc(NC[C@H]2CC[C@](C)(O)CC2)c([N+](=O)[O-])c1 [Example 98, 2-((6-ethoxy-3-fluoro-1H-pyrrolo[2,3-b]pyridin-5-yl)oxy)-4-(2-((R)-4-(3-fluoro-4-methoxybenzyl)-2-(2-isopropylphenyl)piperazin-1-yl)-7-azaspiro[3.5]nonan-7-yl)-N-((6-((((1r,4r)-4-hydroxy-4-methylcyclohexyl)methyl)amino)-5-nitropyridin-3-yl)sulfonyl)benzamide] | 1 |
| COc1cc(CN2CCC(N3CC4(CCN(c5ccc(C(=O)NS(=O)(=O)c6cnc(NC[C@H]7CC[C@](C)(O)CC7)c([N+](=O)[O-])c6)c(Oc6cc7c(F)c[nH]c7nc6OC)c5)CC4)C3)C(c3ccccc3C(C)C)C2)ccc1C1CC1 (some centres unmarked) [Example 24, 4-(2-(1-(4-cyclopropyl-3-methoxybenzyl)-3-(2-isopropylphenyl)piperidin-4-yl)-2,7-diazaspiro[3.5]nonan-7-yl)-2-((3-fluoro-6-methoxy-1H-pyrrolo[2,3-b]pyridin-5-yl)oxy)-N-((6-((((1r,4r)-4-hydroxy-4-methylcyclohexyl)methyl)amino)-5-nitropyridin-3-yl)sulfonyl)benzamide] | 1 |

Test system: RS4;11-BCL-2 G101V cells
Experiment: Cell proliferation assay (MTS), RS4;11-BCL-2 G101V engineered cells
Assay type: cell-based
Details: Homo sapiens, 120 h, read-out: RS4, 11 BCL2-G101V IC50
Source text: MTS testing kit was purchased from Promega (Madison, WI, USA). The RPMI-1640, Fetal bovine serum and Penicillin-Streptomycin were purchased from BI (Biological Industries, Beit Haemek, Israel). Puromycin was purchased from Beyotime (shanghai, China). Dimethyl sulfoxide (DMSO) was purchased from Sigma (St. Louis., MO, USA). RS4;11-BCL-2 G101V (Cobioer Lot. #: CBD2021063013P4), RS4;11-BCL-2 D103E (Cobioer Lot. #: CBD2021063013P4), RS4;11-BCL-2 D103Y (Cobioer Lot. #: CBD2022012101P4) and RS4;11-BCL-2 F104L (Cobioer Lot. #: CBD2021063014P4) cells were cultured in RPMI1640 supplemented with 1 ug/mL puromycin, 100 U/mL Penicillin-Streptomycin and 10% FBS.
To investigate whether a compound is able to inhibit the activity of BCL-2 mutation in cells, a mechanism-based assay using engineered cell lines stably overexpressing BCL-2 mutation (RS4;11-BCL-2 G101V, RS4;11-BCL-2 D103E, RS4;11-BCL-2 D103Y, and RS4;11-BCL-2 F104L) was developed. In this assay, the inhibition of BCL-2 mutation was reflected by the inhibition of cell proliferation of engineered RS4;11 cells. Cells were plated into 96-well plates at optimized cell density (RS4;11-BCL-2 G101V: 5000 cells/well; RS4;11-BCL-2 D103E: 7500 cells/well; RS4;11-BCL-2 D103Y: 7500 cells/well; RS4;11-BCL-2 F104L: 5000 cells/well). Plates were incubated at 37° C., with 5% CO2 for 4 h (RS4;11-BCL-2 G101V, RS4;11-BCL-2 F104L) and 24 h (RS4;11-BCL-2 D103E, RS4;11-BCL-2 D103Y), respectively. Compounds were serially diluted and added to the plates with the final concentrations of 10000, 3333.3, 1111.1, 370.4, 123.5, 41.2, 13.7, 4.6 and 1.5 nM. Plates were incubated at 37° C., with 5% CO2 for 120 h (RS4; 11-BCL-2 G101V, RS4; 11-BCL-2 F104L) and 72 h (RS4;11-BCL-2 D103E, RS4;11-BCL-2 D103Y), respectively. 20 μl MTS was added into each well and the plates were incubated at 37° C., with 5% CO2 exactly for 2 h. The absorbance was measured by a microplate reader at 490 nm. IC50 values were calculated using GraphPad Prism 8.0 software.

| Compound | IC50 [nM] |
| --- | --- |
| COc1cc(CN2CCN(C3CC4(CCN(c5ccc(C(=O)NS(=O)(=O)c6cnc(NC[C@H]7CC[C@](C)(O)CC7)c([N+](=O)[O-])c6)c(Oc6cnc7[nH]cc(F)c7c6)c5)CC4)C3)[C@H](c3ccccc3C(C)C)C2)ncc1C1CC1 [Example 251, 4-(2-((R)-4-((5-cyclopropyl-4-methoxypyridin-2-yl)methyl)-2-(2-isopropylphenyl)piperazin-1-yl)-7-azaspiro [3.5]nonan-7-yl)-2-((3-fluoro-1H-pyrrolo[2,3-b]pyridin-5-yl)oxy)-N-((6-((((1r,4r)-4-hydroxy-4-methylcyclohexyl)methyl)amino)-5-nitropyridin-3-yl)sulfonyl)benzamide] | 1 |
| COc1ccc(CN2CCN(C3CC4(CCN(c5ccc(C(=O)NS(=O)(=O)c6cnc(NC[C@H]7CC[C@](C)(O)CC7)c([N+](=O)[O-])c6)c(Oc6cnc7[nH]cc(F)c7c6)c5)CC4)C3)[C@H](c3ccccc3C(C)C)C2)nc1 [Example 256, 2-((3-fluoro-1H-pyrrolo[2,3-b]pyridin-5-yl)oxy)-N-((6-((((1r,4r)-4-hydroxy-4-methylcyclohexyl)methyl)amino)-5-nitropyridin-3-yl)sulfonyl)-4-(2-((R)-2-(2-isopropylphenyl)-4-((5-methoxypyridin-2-yl)methyl)piperazin-1-yl)-7-azaspiro[3.5]nonan-7-yl)benzamide] | 1 |
| COc1ccc(CN2CCN(C3CC4(CCN(c5ccc(C(=O)NS(=O)(=O)c6cnc(NC[C@H]7CC[C@](C)(O)CC7)c([N+](=O)[O-])c6)c(Oc6cc7c(F)c[nH]c7nc6OC)c5)CC4)C3)[C@H](c3ccccc3C3CC3)C2)cc1 [Example 52, 4-(2-((R)-2-(2-cyclopropylphenyl)-4-(4-methoxybenzyl)piperazin-1-yl)-7-azaspiro[3.5]nonan-7-yl)-2-((3-fluoro-6-methoxy-1H-pyrrolo[2,3-b]pyridin-5-yl)oxy)-N-((6-((((1r,4r)-4-hydroxy-4-methylcyclohexyl)methyl)amino)-5-nitropyridin-3-yl)sulfonyl)benzamide] | 1 |
| CC(C)c1ccccc1[C@@H]1CN(Cc2ccc3c(c2)OC(F)(F)O3)CCN1C1CC2(CCN(c3ccc(C(=O)NS(=O)(=O)c4cnc(NC[C@H]5CC[C@](C)(O)CC5)c([N+](=O)[O-])c4)c(Oc4cnc5[nH]cc(F)c5c4)c3)CC2)C1 [Example 352, 4-(2-((R)-4-((2,2-difluorobenzo[d][1,3]dioxol-5-yl)methyl)-2-(2-isopropylphenyl)piperazin-1-yl)-7-azaspiro[3.5]nonan-7-yl)-2-((3-fluoro-1H-pyrrolo [2,3-b]pyridin-5-yl)oxy)-N-((6-((((1r,4r)-4-hydroxy-4-methylcyclohexyl)methyl)amino)-5-nitropyridin-3-yl)sulfonyl)benzamide] | 1 |
| CCOc1nc2[nH]cc(F)c2cc1Oc1cc(N2CCC3(CC2)CC(N2CCN(Cc4ccc(OC)c5oc(C)nc45)C[C@H]2c2ccccc2C(C)C)C3)ccc1C(=O)NS(=O)(=O)c1cnc(NC[C@H]2CC[C@](C)(O)CC2)c([N+](=O)[O-])c1 [Example 246, 2-((6-ethoxy-3-fluoro-1H-pyrrolo[2,3-b]pyridin-5-yl)oxy)-N-((6-((((1r,4r)-4-hydroxy-4-methylcyclohexyl)methyl)amino)-5-nitropyridin-3-yl)sulfonyl)-4-(2-((R)-2-(2-isopropylphenyl)-4-((7-methoxy-2-methylbenzo[d]oxazol-4-yl)methyl)piperazin-1-yl)-7-azaspiro[3.5]nonan-7-yl)benzamide] | 2 |

Now from value to compound:

| IC50 [nM] | Compound |
| --- | --- |
| 1 | COc1nc2[nH]cc(F)c2cc1Oc1cc(N2CCC3(CC2)CC(N2CCN(C)C[C@H]2c2ccccc2C(C)C)C3)ccc1C(=O)NS(=O)(=O)c1cnc(NC[C@H]2CC[C@](C)(O)CC2)c([N+](=O)[O-])c1 [Example 137, 2-((3-fluoro-6-methoxy-1H-pyrrolo[2,3-b]pyridin-5-yl)oxy)-N-((6-((((1r,4r)-4-hydroxy-4-methylcyclohexyl)methyl)amino)-5-nitropyridin-3-yl)sulfonyl)-4-(2-((R)-2-(2-isopropylphenyl)-4-methylpiperazin-1-yl)-7-azaspiro[3.5]nonan-7-yl)benzamide] |
| 1 | COc1nc2[nH]cc(F)c2cc1Oc1cc(N2CCC3(CC2)CC(N2CCN(C4COC4)C[C@H]2c2ccccc2C(C)C)C3)ccc1C(=O)NS(=O)(=O)c1cnc(NC[C@H]2CC[C@](C)(O)CC2)c([N+](=O)[O-])c1 [Example 131, 2-((3-fluoro-6-methoxy-1H-pyrrolo[2,3-b]pyridin-5-yl)oxy)-N-((6-((((1r,4r)-4-hydroxy-4-methylcyclohexyl)methyl)amino)-5-nitropyridin-3-yl)sulfonyl)-4-(2-((R)-2-(2-isopropylphenyl)-4-(oxetan-3-yl)piperazin-1-yl)-7-azaspiro[3.5]nonan-7-yl)benzamide] |
| 1 | CC(C)c1ccccc1[C@@H]1CN(C2COC2)CCN1C1CC2(CCN(c3ccc(C(=O)NS(=O)(=O)c4cnc(NC[C@H]5CC[C@](C)(O)CC5)c([N+](=O)[O-])c4)c(Oc4cnc5[nH]cc(F)c5c4)c3)CC2)C1 [Example 205, 2-((3-fluoro-1H-pyrrolo[2,3-b]pyridin-5-yl)oxy)-N-((6-((((1r,4r)-4-hydroxy-4-methylcyclohexyl)methyl)amino)-5-nitropyridin-3-yl)sulfonyl)-4-(2-((R)-2-(2-isopropylphenyl)-4-(oxetan-3-yl)piperazin-1-yl)-7-azaspiro[3.5]nonan-7-yl)benzamide] |
| 1 | COc1nc2[nH]cc(F)c2cc1Oc1cc(N2CCC3(CC2)CC(N2CCN(C4CCC(O)CC4)C[C@H]2c2ccccc2C(C)C)C3)ccc1C(=O)NS(=O)(=O)c1cnc(NC[C@H]2CC[C@](C)(O)CC2)c([N+](=O)[O-])c1 (single isomer, unassigned) [Example 332] |
